Assay results published in EP1077967B1, “BIPHENYL OXO-ACETIC ACIDS USEFUL IN THE TREATMENT OF INSULIN RESISTANCE AND HYPERGLYCEMIA” (Wyeth, priority 1998, dated 1999).
Read-outs that look alike come from different tables or passages of the source.

Key:
Human recombinant PTP1B = target: T1, Human recombinant PTP1B (Homo sapiens, UniProt P18031); assay: Inhibition of tri-phosphorylated insulin receptor dodecaphosphopeptide dephosphorylation by hPTP1B (malachite green); assay type: biochemical; conditions: recombinant PTP1B, dodecaphosphopeptide substrate
T1 construct: made in house
T1 sequence (P18031 1-435): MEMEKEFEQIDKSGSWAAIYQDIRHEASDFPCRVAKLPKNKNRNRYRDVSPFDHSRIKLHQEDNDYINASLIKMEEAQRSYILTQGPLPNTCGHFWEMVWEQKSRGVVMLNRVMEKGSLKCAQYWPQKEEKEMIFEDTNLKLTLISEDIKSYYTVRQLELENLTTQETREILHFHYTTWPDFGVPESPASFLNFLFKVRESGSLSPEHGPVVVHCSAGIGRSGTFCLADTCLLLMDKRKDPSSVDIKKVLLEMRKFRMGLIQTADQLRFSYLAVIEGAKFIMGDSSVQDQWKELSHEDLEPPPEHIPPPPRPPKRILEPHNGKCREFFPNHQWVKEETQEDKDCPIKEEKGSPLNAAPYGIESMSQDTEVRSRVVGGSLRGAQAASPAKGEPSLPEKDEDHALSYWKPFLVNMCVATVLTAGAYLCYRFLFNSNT

[1] = tested on: rat hepatic microsomal PTPases; assay: Inhibition of tri-phosphorylated insulin receptor dodecaphosphopeptide dephosphorylation by rat hepatic PTPases (malachite green); assay type: biochemical; conditions: rat liver microsomal fraction; for % Change from Control: PTPase activity, compound at 50 µM; for IC50: % Change from Control
diabetic (ob/ob) mice = assay: Blood glucose lowering in diabetic (ob/ob) mice; assay type: in vivo; conditions: Mus musculus, po, cells marked a = no significant activity (p<0.05) at this dose
[2] = read-out: % Change Insulin from Vehicle
[3] = plasma glucose, read-out: % Change Glucose from Vehicle

CCCCc1oc2ccccc2c1-c1ccc(-c2ccc(OC(Cc3ccccc3)C(=O)O)cc2)cc1 (stereo not drawn) [Example 10, 2-[4'-(2-Butyl-benzofuran-3-yl)-biphenyl-4-yloxy]-3-phenyl-propionic acid]
IC50 (Human recombinant PTP1B): 440 nM
% Change from Control [1]: -72%
change in vivo at 100 mg/kg (diabetic (ob/ob) mice; [2]): -51.9%
change in vivo at 100 mg/kg (diabetic (ob/ob) mice; [3]): -34.2%

O=C(O)C(Cc1ccccc1)Oc1ccc(-c2ccc(-c3c(Cc4ccccc4)oc4ccccc34)cc2)cc1 (stereo not drawn) [Example 11, 2-[4'-(2-Benzyl-benzofuran-3-yl)-biphenyl-4-yloxy]-3-phenyl-propionic acid]
IC50 (Human recombinant PTP1B): 270 nM
% Change from Control [1]: -61%
change in vivo at 100 mg/kg (diabetic (ob/ob) mice; [2]): -44.9%
change in vivo at 100 mg/kg (diabetic (ob/ob) mice; [3]): -40.4%

CCCCc1sc2ccccc2c1-c1ccc(-c2ccc(OC(Cc3ccccc3)C(=O)O)cc2)cc1 (stereo not drawn) [Example 12, 2-[4'-(2-Butyl-benzo[b]thiopen-3-yl)-biphenyl-4-yloxy]-3-phenyl-propionic acid]
IC50 (Human recombinant PTP1B): 176 nM
% Change from Control [1]: -50%
change in vivo at 100 mg/kg (diabetic (ob/ob) mice; [2]): -15.8%
change in vivo at 100 mg/kg (diabetic (ob/ob) mice; [3]): -27.5%

O=C(O)[C@@H](Cc1ccccc1)Oc1ccc(-c2ccc(-c3c(Cc4ccccc4)oc4ccccc34)cc2)cc1 [Example 15, (2R)-2-[4'-(2-Benzyl-benzofuran-3-yl)-biphenyl-4-yloxy]-3-phenyl-propionic acid]
IC50 (Human recombinant PTP1B): 348 nM
% Change from Control [1]: -59%
change in vivo at 100 mg/kg (diabetic (ob/ob) mice; [2]): 4.1%
change in vivo at 100 mg/kg (diabetic (ob/ob) mice; [3]): -35%

C[C@@H](Oc1ccc(-c2ccc(-c3c(Cc4ccccc4)oc4ccccc34)cc2)cc1)C(=O)O [Example 17, (2R)-2-[4'-(2-Benzyl-benzofuran-3-yl)-biphenyl-4-yloxy]-propionic acid]
IC50 (Human recombinant PTP1B): 1320 nM
% Change from Control [1]: -63%
change in vivo at 100 mg/kg (diabetic (ob/ob) mice; [2]): -94.4%
change in vivo at 100 mg/kg (diabetic (ob/ob) mice; [3]): 13.7%

O=C(O)[C@@H](Cc1ccccc1)Oc1ccc(-c2ccc(-c3c(Cc4ccc(F)cc4)sc4ccccc34)cc2)cc1 [Example 19]
IC50 (Human recombinant PTP1B): 123 nM
IC50 [1]: 21400 nM
change in vivo at 100 mg/kg (diabetic (ob/ob) mice; [2]): 1.1%
change in vivo at 100 mg/kg (diabetic (ob/ob) mice; [3]): -27.7%

O=C(O)[C@@H](Cc1ccccc1)Oc1ccc(-c2ccc(-c3c(Cc4ccc(O)c(O)c4)sc4ccccc34)cc2)cc1 [Example 28, (2R)-2-{4'-[2-(3,4-Dihydroxy-benzyl)-benzo[b]thiophene-3-yl)-biphenyl-4-yloxy]-3-phenyl-propionic acid]
IC50 (Human recombinant PTP1B): 122 nM
IC50 [1]: 20600 nM
change in vivo at 25 mg/kg (diabetic (ob/ob) mice; dose 25 mg/Kg, plasma glucose, read-out: % Change Glucose from Vehicle): -20%
